Non-standard residues stand in square brackets, D forms with d. Residues, ends and D or L forms follow the SMILES beside them.
Assays:
healthy male volunteers = assay: Phase I/II study in healthy male volunteers: safety and tolerability; type: in vivo, human
Description: In order to evaluate the safety of the drug, all reported adverse events were considered during the study. The effects of the drug exerted specifically on the liver, renal, thyroid, cardiac and haematological functions were evaluated. The MED was defined as the dose of the GHRH(1-29)NH2 synthetic analog lower than the subsequent dose that produced the best secretion profile of GH.
It was a crossover single-blinded Phase I/II trial of escalating doses of the GHRH(1-29)NH2 synthetic analog controlled versus placebo. Ten healthy middle-aged male volunteers, between 50 and 55 years old, were recruited. All 10 subjects received a single subcutaneous dose of the GHRH(1-29)NH2 synthetic analog (reconstituted in water for injection), per day for 5 days, in a dose range from 5 to 25 μg/kg of body weight (lower than the maximal dose used to treat GH deficiency in children, which was 30 μg/kg of body weight).
After signing the informed consent form, all volunteers were clinically evaluated by the investigator and a chest x-ray and basal electrocardiogram and routine laboratory tests were performed. The analysis included: haemogram (hematocrit, haemoglobin, complete blood cell count, mean cell volume (MCV), mean corpuscular haemoglobin concentration (MCHC) and platelet count), liver function tests (aminotransferases, total proteins, albumin, alkaline phosphatase, billirubin, lactate dehydrogenase and prothrombin time), biochemistry (creatinine, urea, sodium, potassium, calcium, phosphorus, fasting glucose and postprandial glucose), urinalysis (pH, glucose, blood, proteins, and leukocytes), triiodothyronine, thyroxin and thyroid stimulating hormone (TSH), serology, basal level of IGF-1 and urine drug abuse screening.
Once the volunteers were considered eligible, they were hospitalized for a period of 5 consecutive days. On Day 0 of admission successive samples of blood were taken to perform the basal secretion profile of GH during 24 hours. During 5-day hospitalization period, after the initial blood sampling to determine fasting glucose level, the appropriate dose of the GHRH(1-29)NH2 synthetic analog or placebo was administered and multiple samplings were performed to assess the profile of GH, postprandial glucose level and electrocardiogram after 60 minutes of the application of the GHRH(1-29)NH2 synthetic analog/placebo. Eight hours after drug administration, samples were obtained to determine IGF-1 level, thyroid hormones and routine analysis. After 30 days of admission, all the volunteers returned for new clinical evaluation to record any adverse events that could have occurred from the last day of hospitalization period and to take a blood sample for later determination of anti-GHRH(1-29)NH2 synthetic analog antibodies.

Canine Growth Hormone = assay: In vivo GH secretion in a male Beagle dog, escalating SC doses, RIA
From the text: In order to assess such use of the GHRH analogs, the following experiments were undertaken. […] The above GHRH analog is a variation of a synthetic acetate salt of an amidated synthetic 29-amino acid peptide that corresponds to the amino-terminal segment of the naturally-occurring human growth hormone—releasing hormone (GHRH) with four amino acid substitutions in positions 2, 10, 15, and 22.
Prior to administration, all dosing formulations were filtered using a 0.22 μm filter to ensure sterility. […] Dosing started at approximately the same time each day, commencing at 9:00 am ±30 minutes.
For pharmacodynamic investigations, blood samples (approximately 1.0 ml) were collected from the dog on each treatment day via a jugular venipuncture at the following time points: pre-dose, 7, 15, 22, 30, 45, and 60 minutes post dosing. All blood samples were collected into potassium EDTA tubes and centrifuged under refrigeration (2 to 8° C., 1500 g for 10 minutes).
Plasma GH was determined by Linco Diagnostic Services using their own kit. Linco's Porcine/Canine Growth Hormone radioimmunoassay kit (RIA) (PGH-46HK) has been developed to quantitate Growth Hormone in plasma, serum, and tissue culture media. It is a completely homologous assay since the antibody was raised against recombinant Porcine Growth Hormone and both the standard and tracer are prepared with recombinant Porcine Growth Hormone. Since the amino acid sequences of Porcine Growth Hormone and Canine Growth Hormone are identical, this assay developed for Porcine Growth Hormone measures Canine Growth Hormone levels with equal efficiency. All components are included (standards, antibody, tracer, quality controls, precipitating reagents and buffer) necessary to complete a RIA. The assay was conducted under the following conditions: overnight; equilibrium incubation at room temperature; sample volume: 100 μl serum, plasma, or cell culture media.

[1] = tested on: Salmonella strains, Chinese Hamster Ovary cells, erythrocyte micronucleus test; assay: Mutagenicity tests
[2] = tested on: malnourished subjects with CKD; assay: Phase II CKD: Subjective Global Assessment (SGA); type: in vivo, human; settings: for SGA mild to moderately malnourished: (%) / SGA mild to moderately malnourished: n / SGA severely malnourished: (%) / SGA severely malnourished: n / SGA well nourished: (%) / SGA well nourished: n: ITT
From the text: An SGA was an overall evaluation of a subject by an experienced clinician that correlated with the subjective and objective aspects of a medical history and physical examination. An SGA was completed at both the screening and baseline visits, on Day 28 and at the follow-up visit. Review of the medical history included an assessment of weight and weight change, dietary intake, gastrointestinal symptoms, disease state, and the subject's functional status. The SGA also included a physical examination for negative changes in body composition such as loss of subcutaneous fat or muscle wasting, and signs of oedema or ascites (nutrition-related). After evaluation, the subject was classified as well nourished (A), mild to moderately malnourished (B), or severely malnourished (C).

[3] = all volunteers, throughout the study
[4] = Baseline, listed as GHRH(1-29)NH2 synthetic analog

SMILES: CC[C@H](C)[C@H](NC(=O)[C@H](C)NC(=O)[C@H](CC(=O)O)NC(=O)[C@@H](C)NC(=O)[C@@H](N)Cc1ccc(O)cc1)C(=O)N[C@@H](Cc1ccccc1)C(=O)N[C@H](C(=O)N[C@@H](CC(N)=O)C(=O)N[C@@H](CO)C(=O)N[C@H](Cc1ccc(O)cc1)C(=O)N[C@@H](CCCNC(=N)N)C(=O)N[C@@H](CCCCN)C(=O)N[C@H](C(=O)N[C@@H](CC(C)C)C(=O)N[C@H](C)C(=O)N[C@@H](CCC(N)=O)C(=O)N[C@@H](CC(C)C)C(=O)N[C@@H](CO)C(=O)N[C@@H](C)C(=O)N[C@@H](CCCNC(=N)N)C(=O)N[C@@H](CCCCN)C(=O)N[C@@H](CCCCN)C(=O)N[C@@H](CC(C)C)C(=O)N[C@@H](CCC(N)=O)C(=O)N[C@@H](CC(=O)O)C(=O)N[C@H](C(=O)N[C@@H](CCSC)C(=O)N[C@@H](CO)C(=O)N[C@@H](CCCNC(=N)N)C(N)=O)[C@@H](C)CC)C(C)C)[C@@H](C)O [GHRH analog #5, [D-Ala^2, D-Tyr^10, D-Ala^15, Lys^22] hGHRH(1-29)-NH2] (H-Y[dA]DAIFTNS[dY]RKVL[dA]QLSARKKLQDIMSR-NH2)
- Serious adverse events (healthy male volunteers; 5 to 25 μg/kg sc, healthy male volunteers): no serious adverse events were reported
- Aminotransferase elevation, one case (healthy male volunteers; Day 1 to Day 5): less than 2.5 times the upper normal limit
- Neutrophils, neutropenia case (healthy male volunteers; Day 2, after 10 μg/kg dose): 1,406 neutrophyles/mm3
- White blood cells, leukopenia case (healthy male volunteers; Day 2, after 10 μg/kg dose): 3,800 WBC/mm3
- Eosinophils, eosinophilia in one volunteer (healthy male volunteers; Day 5, 5 μg/kg dose): 808 eosinophyls/mm3
- White blood cells, leukocytosis in one volunteer (healthy male volunteers; Day 5, 5 μg/kg dose): 12,400 WBC/mm3
- Mean decrease of haematocrit (healthy male volunteers; [3]): 10.1±1.9 points
- Mean decrease of haemoglobin (healthy male volunteers; [3]): 2.8 ± 0.8 g/dL
- Thyroid anomalies, cardiac dysfunction (healthy male volunteers; human, in vivo): Neither thyroid anomalies nor cardiac dysfunction were reported
- Canine Growth Hormone (Canine Growth Hormone; 0.01 mg/kg BW SC, 0 min): 1.99 ng/mL
- Canine Growth Hormone (Canine Growth Hormone; 0.01 mg/kg BW SC, 7 min): 1.99 ng/mL
- Canine Growth Hormone (Canine Growth Hormone; 0.01 mg/kg BW SC, 15 min): 5 ng/mL
- Canine Growth Hormone (Canine Growth Hormone; 0.01 mg/kg BW SC, 22 min): 4 ng/mL
- Canine Growth Hormone (Canine Growth Hormone; 0.01 mg/kg BW SC, 30 min): 11 ng/mL
- Canine Growth Hormone (Canine Growth Hormone; 0.01 mg/kg BW SC, 45 min): 17 ng/mL
- Canine Growth Hormone (Canine Growth Hormone; 0.01 mg/kg BW SC, 60 min): 11 ng/mL
- Canine Growth Hormone (Canine Growth Hormone; 0.1 mg/kg BW SC, 0 min): 1.99 ng/mL
- Canine Growth Hormone (Canine Growth Hormone; 0.1 mg/kg BW SC, 7 min): 5 ng/mL
- Canine Growth Hormone (Canine Growth Hormone; 0.1 mg/kg BW SC, 15 min): 9 ng/mL
- Canine Growth Hormone (Canine Growth Hormone; 0.1 mg/kg BW SC, 22 min): 7 ng/mL
- Canine Growth Hormone (Canine Growth Hormone; 0.1 mg/kg BW SC, 30 min): 6 ng/mL
- Canine Growth Hormone (Canine Growth Hormone; 0.1 mg/kg BW SC, 45 min): 5 ng/mL
- Canine Growth Hormone (Canine Growth Hormone; 0.1 mg/kg BW SC, 60 min): 1.99 ng/mL
- Canine Growth Hormone (Canine Growth Hormone; 1 mg/kg BW SC, 0 min): 1.99 ng/mL
- Canine Growth Hormone (Canine Growth Hormone; 1 mg/kg BW SC, 7 min): 4 ng/mL
- Canine Growth Hormone (Canine Growth Hormone; 1 mg/kg BW SC, 15 min): 14 ng/mL
- Canine Growth Hormone (Canine Growth Hormone; 1 mg/kg BW SC, 22 min): 9 ng/mL
- Canine Growth Hormone (Canine Growth Hormone; 1 mg/kg BW SC, 30 min): 19 ng/mL
- Canine Growth Hormone (Canine Growth Hormone; 1 mg/kg BW SC, 45 min): 7 ng/mL
- Canine Growth Hormone (Canine Growth Hormone; 1 mg/kg BW SC, 60 min): 7 ng/mL
- Treatment-related clinical signs (Canine Growth Hormone; dog): No treatment-related clinical signs were observed
- GH response compared with natural hGHRH(1-44)NH2 (Canine Growth Hormone; dog, AUC not measured): significantly larger
- GH secretion into peripheral blood, dose dependence (Canine Growth Hormone; dog, subcutaneous): dose-dependent response
- Optimal sc dose (Canine Growth Hormone; dogs): 10 μg/kg body weight
- Clastogenicity [1]: not a clastogenic agent
- Mutagenicity ([1]; Salmonella strains, CHO cells, erythrocyte micronucleus test): no evidence of mutagenicity
- SGA mild to moderately malnourished: (%) ([2]; Baseline): (69.2%)
- SGA mild to moderately malnourished: n ([2]; Baseline): 9
- SGA severely malnourished: (%) ([2]; Baseline): (7.7%)
- SGA severely malnourished: n ([2]; Baseline): 1
- SGA well nourished: (%) ([2]; Baseline): (23.1%)
- SGA well nourished: n ([2]; Baseline): 3
- SGA severely malnourished: (%) [2, 4]: 7.7%
- SGA well nourished: (%) [2, 4]: 23.1%
- SGA mild to moderately malnourished: (%) ([2]; Day 28): (16.7%)
- SGA mild to moderately malnourished: n ([2]; Day 28): 2
- SGA severely malnourished: (%) ([2]; Day 28): (8.3%)
- SGA severely malnourished: n ([2]; Day 28): 1
- SGA well nourished: (%) ([2]; Day 28): (75.0%)
- SGA well nourished: n ([2]; Day 28): 9
- SGA well nourished: (%) ([2]; Day 28, listed as GHRH(1-29)NH2 synthetic analog): 75.0%
- Mild to moderate malnourished patients (of 9) who became well nourished ([2]; after 28 days of therapy): 6

— patent US20090088380A1, “GHRH ANALOGS AND THERAPEUTIC USES THEREOF” (priority 2007, published 2009)
